US20130011378A1, “Stable formulations of a hyaluronan-degrading enzyme” (priority 2011, published 2013)
Structures can show the parent of a compound that is named as a salt. Residues, ends and D or L forms follow the SMILES beside them.

What was measured:
rHuPH20 = target: T1, rHuPH20 (Homo sapiens, UniProt P38567); experiment: Determination of hyaluronidase activity of rHuPH20, turbidimetric assay (Example 2, variant not specified); assay type: biochemical; conditions: for Effect on rHuPH20 enzymatic activity: stabilizer screening in rHuPH20/insulin formulation, semi-quantitative in comparison with NaCl, samples incubated at 30° C. for about one week
T1 construct: made in house; host or cells: CHO cells (DG44 CHO, HZ24 plasmid, clone 2B2)
T1 sequence (P38567 36-482): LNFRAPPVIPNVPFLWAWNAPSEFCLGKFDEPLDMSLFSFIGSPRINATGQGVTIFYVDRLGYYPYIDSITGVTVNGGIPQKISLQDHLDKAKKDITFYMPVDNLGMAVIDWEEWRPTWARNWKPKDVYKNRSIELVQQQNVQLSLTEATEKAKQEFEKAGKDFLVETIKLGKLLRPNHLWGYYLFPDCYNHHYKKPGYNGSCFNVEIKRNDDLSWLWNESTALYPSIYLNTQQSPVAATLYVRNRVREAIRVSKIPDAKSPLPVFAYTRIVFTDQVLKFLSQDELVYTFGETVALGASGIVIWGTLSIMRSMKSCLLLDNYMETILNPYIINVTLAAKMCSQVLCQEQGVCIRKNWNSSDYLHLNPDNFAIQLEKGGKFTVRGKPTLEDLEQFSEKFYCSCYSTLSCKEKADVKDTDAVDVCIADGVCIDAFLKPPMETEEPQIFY

[1] = Non-denaturing SEC: percent main peak / aggregates of insulin and rHuPH20; assay type: physicochemical
Method: Reference samples were stored in HPLC vials at 10° C. prior to use.
Samples were stored in HPLC vials at 10° C. prior to use, for up to 3 days.
0.5× Phosphate Buffered Saline (PBS) solution was prepared by diluting 10×PBS with HPLC grade water.
Insulin percent purity was expressed as percentage of the insulin main peak versus the total insulin peaks. The target specification is less than 2% high molecular weight protein, i.e., insulin aggregates.
SEC was performed using the following conditions: 1× Phosphate Buffered Saline (PBS), a Toso BioScience G2000 SWXL column, and a flow rate set at 1 mL/min. Data were collected as described above and means were reported and entered into the design table following the sample sequence provided by the DOE software.

[2] = RP-HPLC: insulin apparent solubility / percent recovery; conditions: stabilizer screening in rHuPH20/insulin formulation, semi-quantitative in comparison with NaCl; RP-HPLC, samples stored at 5° C.
Method: Apparent solubility was measured as the percent insulin recovery as compared to the initial formulations/conditions.
Samples were prepared by withdrawing 100 μL from each vial at every time point and centrifuging prior to loading. Samples were stored in an autosampler at 4° C. prior to use, and were considered stable for 3 days after preparation. All samples were tested in duplicate.
For insulin, 20 μL was injected for each HPLC run.
To determine the apparent solubility, the peak area of insulin/insulin analog main peak and desamido peak were integrated and combined together to calculate the percentage relative to the standards. […] The data were processed using Design-Expert® 7.0 (StatEase) and the “historical data” feature. Insulin percent purity was expressed as the percent of main insulin versus all insulin species.

[3] = t = 0, 100 μg/mL rHuPH20, pH 7.3, 140 mM NaCl, 0.01% polysorbate 80, preservative levels of Table 21, in U/mL
[4] = 48 hours, 4° C., preservative levels of Table 22, in U/mL
[5] = 48 hours, 35° C., preservative levels of Table 22, in U/mL
[6] = 35° C., Table 22 concentrations

Compound | rHuPH20 activity (rHuPH20; 24 hours, 25° C., in U/mL) | rHuPH20 activity (rHuPH20; 5 days, 25° C., in U/mL) | rHuPH20 activity (rHuPH20; [3]) | % Main rHuPH20 peak by non-denaturing SEC ([1]; 4° C., 1 day) | % Main rHuPH20 peak by non-denaturing SEC ([1]; 35° C., 1 day) | Effect on rHuPH20 enzymatic activity (rHuPH20) | further results
C[N+](C)(C)CC(=O)O [Betaine] | – | – | – | – | – | No effect | Effect on insulin solubility [2]: No effect
NC(=O)CC[C@H](N)C(=O)O [Glutamine] | – | – | – | – | – | No effect | Effect on insulin solubility [2]: No effect
NCC(=O)NCC(=O)O [Gly-Gly] (H-Gly-Gly-OH) | – | – | – | – | – | No effect | –
O[C@H]1[C@H](O)[C@@H](O)[C@H](O)[C@@H](O)[C@H]1O [Inositol] | – | – | – | – | – | No effect | –
NCCCC[C@H](N)C(=O)O [Lysine] | – | – | – | – | – | No effect | Effect on insulin solubility [2]: No effect
OC[C@@H](O)[C@@H](O)[C@H](O)[C@H](O)CO [Mannitol] | – | – | – | – | – | No effect | –
O=C(O)CCCc1ccccc1 [Phenyl butyric acid] | – | – | – | – | – | No effect | –
O=C([O-])c1ccccc1.[Na+] [Sodium Benzoate] | – | – | – | – | – | No effect | –

Further lines, with some results ahead:

rHuPH20 activity (rHuPH20; 24 hours, 25° C., in U/mL) | rHuPH20 activity (rHuPH20; 5 days, 25° C., in U/mL) | rHuPH20 activity (rHuPH20; [3]) | % Main rHuPH20 peak by non-denaturing SEC ([1]; 4° C., 1 day) | % Main rHuPH20 peak by non-denaturing SEC ([1]; 35° C., 1 day) | Compound | Effect on rHuPH20 enzymatic activity (rHuPH20) | further results
3500 | 1440 | 11,350 | 97.89% | <LOD | OCCCCCl [4-Chloro-1-butanol] | – | rHuPH20 activity (rHuPH20; 6 days, 35° C.): <LOQ
9520 | 12310 | 9,590 | 98.35% | 98.23% | N=C(NCCCCCCNC(=N)NC(=N)Nc1ccc(Cl)cc1)NC(=N)Nc1ccc(Cl)cc1.O=C(O)[C@H](O)[C@@H](O)[C@H](O)[C@H](O)CO.O=C(O)[C@H](O)[C@@H](O)[C@H](O)[C@H](O)CO [Chlorhexidine digluconate] | – | rHuPH20 activity (rHuPH20; [4]): 12,090; rHuPH20 activity (rHuPH20; [5]): 13,110; rHuPH20 activity (rHuPH20; 6 days, 35° C., in U/mL): 12270; % Main rHuPH20 peak by non-denaturing SEC ([1]; 4° C., Table 22 concentrations): 99.77%; % Main rHuPH20 peak by non-denaturing SEC [1, 6]: 98.30%
8130 | 8750 | 7,720 | 98.76% | 98.12% | [H]/N=C(\N/C(=N/[H])NCCCCCCNC(=N)NC(=N)Nc1ccc(Cl)cc1)Nc1ccc(Cl)cc1 [Chlorhexidine dihydrochloride] | – | rHuPH20 activity (rHuPH20; 6 days, 35° C., in U/mL): 11890
12100 | 11460 | 13,420 | 98.27% | 98.86% | N[C@@H](Cc1ccccc1)C(=O)O [L-Phenylalanine] | – | rHuPH20 activity (rHuPH20; [4]): 12,540; rHuPH20 activity (rHuPH20; [5]): 13,130; rHuPH20 activity (rHuPH20; 6 days, 35° C., in U/mL): 10660; % Main rHuPH20 peak by non-denaturing SEC ([1]; 4° C., Table 22 concentrations): 100.00%; % Main rHuPH20 peak by non-denaturing SEC [1, 6]: 99.80%
